Laboratory results reported in patent US20070141120A1, “Peptide having an ace inhibiting effect” (priority 2003, published 2007).
Peptide text beside a SMILES is read from it.

Assays:
ACE [1] = target: ACE (Homo sapiens, UniProt P12821); experiment: ACE-inhibition assay 1: enzyme based assay (EBA); format: biochemical; details: substrate Abz-FRK-(Dnp)P-OH, pH 7.0, fluorescence
Procedure: ACE and a synthetic substrate (Abz-FRK-(Dnp)P-OH) were used in the ACE-inhibition assay performed in white optiplate-96 microplates (Packard Bioscience). The substrate was a kind gift of Adriana K. Carmona (Dept. of Biophysics, Escola Paulista de Medivina, Universidae Federal de Sao Paulo, Brazil). Stock solutions of Abz-FRK-(Dnp)P-OH were prepared in DMSO. […] The assay buffer composition was 100 mM tris/HCl buffer pH 7.0 containing 100 mM NaCl. Forty μl sample solution in assay buffer was added to each well. In case of the controls only buffer was added. The samples were measured in threefold in a fluorophotometer (Fluostar, BMG labtechnologies). […] The ACE activity was measured for 10 cycles (about 10 minutes) by measuring the fluorescence at λex=320 nm and ξem=420 nm. The raw data was converted to the slope/sec and the ACE inhibition activity was calculated using the equation below. ACE inhibition (%)=[1−(Smean−Bmean)/(Cmean−Bmean)]*100
Bmean=average result of background (substrate)

ACE [2] = experiment: ACE-inhibition assay 2: modified Matsui assay; format: biochemical; details: substrate Hip-His-Leu, pH 8.3, 37° C., 30 min
Procedure: This ACE inhibition activity was assayed according to the method of Matsui et al. (Matsui, T. et al. (1992) Biosci. Biotech. Biochem. 56: 517-518) with the modifications described below.
For each sample 75 μl 3 mM hippuryl histidine leucine (Hip-His-Leu, Sigma chemicals Co.; the chemical was dissolved in 250 mM Borate containing 200 mM NaCl, pH 8.3); 20 μl 0.1 U/ml ACE (obtained at Sigma) or H2O, and 25 μl sample or H2O were mixed (see Table 1). The mixtures were incubated at 37° C. and stopped after 30 min by adding 125 μl 0.5 M HCl. Subsequently, 225 μl bicine/NaOH solution (1 M NaOH:0.25 M bicine (4:6)) was added, followed by 25 μl 0.1 M TNBS (2,4,6-Trinitrobenzenesulfonic acid, Fluka, Switzerland; in 0.1 M Na2HPO4). After incubation for 20 min. at 37° C., 4 ml 4 mM Na2SO3 in 0.2 M NaH2PO4 was added and the absorbance at 416 nm was measured with UV/Vis spectrophotometer (Shimadzu UV-1601 with a CPS controller, Netherlands).
The amount of ACE inhibition (ACEI) activity was calculated as a percentage of inhibition compared with the conversion rate of ACE in the absence of an inhibitor: ACEI (%)=(((C1−C2)−(S1−S2))/(C1−C2))*100 (1)
C1=Absorbance without ACE inhibitory component (=max. ACE activity) [AU].
C2=Absorbance without ACE inhibitory component and without ACE (background) [AU].
S1=Absorbance in the presence of ACE and the ACE inhibitory component [AU].
S2=Absorbance in the presence of the ACE inhibitory component, but without ACE [AU].

[3] = Stability during exposure to human serum (LC-MS); details: 37° C., up to 360 min, peptide mixtures
Procedure: Samples of 1.5 ml were collected in eppendorf vials at each of the time points. […] Samples were subsequently incubated for 5 min at 100° C. and then centrifugated in an IEC Micromax RF centrifuge (Boom BV Meppel) at 10.000 rpm for 20 minutes. The supernatant was collected in eppendorf vials and stored at −20° C. for further analysis. Experiments were performed in triplicate.
(§1) All measurements were carried out on a Waters Quattro-II or Quattro-Ultima triple quadrupole mass spectrometer. The LC separation was carried out at 25° C. on a Inertsil 5 ODS3 column, 150×2.1 mm, packed with 3 μm particles (Chompack) using 0-50% acetonitrile/0.1% (v/v) TFA. For analyses, 5 μl sample was injected onto the column. The flow rate through the column was 0.2 ml/min. The total flow after post-column makeup was 0.05 ml/min and contained a 7/3 (v/v) mixture of propionic acid and propanol-2. Gradient effluent was analysed using MRM mass spectrometry in positive-ESI mode. Capillary voltage was 4 kV. Source and nebulizer temperature were 100° C. and 250° C., repsectively. Drying and nebuliser gas flow were 300 l/h and 17 l/h, respectively. Collision gas was argon at a pressure of 7.9 e-4 mbar.

HUVEC cells = experiment: Stability during exposure to HUVEC cells (LC-MS); details: up to 120 min, peptide mixtures
Procedure: HUVEC cells were obtained from (Cambrex Bio Science, Verviers, Belgium) and used in experiments at passage 1-5. Cells were cultured in 75 cm^2 culture flasks (Corning Costar, Badhoevedorp, The Netherlands). The culture medium (Cambrex) consisted of EBM-2 supplemented with 2% (v/v) foetal bovine serum, 0.04% (v/v) Hydrocortisone, 0.4% (v/v) human Fibroblast Growth Factor Basic with heparin, 0.1% (v/v) Vascular Endothelial Growth Factor, 0.1% (v/v) human recombinant Insulin-like Growth Factor, 0.1% (v/v) Ascorbic acid, 0.1% (v/v) human recombinant Epidermal Growth Factor, 0.1% (v/v) Gentamicin, Amphotericin-B and 0.1% (v/v) Heparin. Cells were maintained at 37° C. in a humidified atmosphere of 5% CO2 in air. For stability experiments, cells were seeded in a 12 well plate (Corning Costar, Badhoevedorp, The Netherlands) at a density of 100.000 cells/well and cultured for 2 days.
Cells were cultured in 12-well plates. Peptide mixtures were added to culture medium without foetal bovine serum, but containing 20% (v/v) solid phase extracted foetal bovine serum. For HUVEC, 400 μl medium containing 0.1, 1 and 10 μg/ml peptide was added to a well of the culture plate. Three times 130 μl medium was collected at 0, 5, 10, 20, 30, 60, 90 and 120 min of incubation. […] Experiments were performed in triplicate and all samples were directly placed on dry-ice and stored at −20° C. […] Wells without cells served as controls.
as §1

Caco-2 cells = experiment: Stability during exposure to Caco-2 cells (LC-MS); details: up to 360 min, peptide mixtures
Procedure: Caco-2 cells were obtained from American Type Culture Collection (ATCC) and used in experiments at passage 30-40. Cells were cultured in 75 cm^2 culture flasks (Corning Costar, Badhoevedorp, The Netherlands). The culture medium consisted of DMEM (high glucose, with L-glutamine) supplemented with 20% (v/v) foetal bovine serum, 1% (v/v) penicillin/streptomycin solution and 1% (v/v) NEAA. Cells were maintained at 37° C. in a humidified atmosphere of 5% CO2 in air. For stability experiments, cells were seeded on 12 well cell culture plates (Costar, Badhoevedorp, The Netherlands) and cultured for at least 21 days.
Cells were cultured in 12-well plates. Peptide mixtures were added to culture medium without foetal bovine serum, but containing 20% (v/v) solid phase extracted foetal bovine serum. […] For Caco-2 cells, 330 μl medium containing 0.1, 1 and 10 μg/ml peptide was added to each well of the culture plate. Three times 110 μl medium was collected at 0, 5, 10, 20, 30, 60, 90, 180 and 360 min of incubation. Experiments were performed in triplicate and all samples were directly placed on dry-ice and stored at −20° C. […] Wells without cells served as controls.
as §1

[4] = In vitro gastrointestinal digestion (GI conditions); details: simulated gastric fluid pH 3.5 60 min, then intestinal fluid pH 6.8 120 min, 37° C.
Procedure: The stability of peptides in the human gastrointestinal tract was studied by subjecting fermented or hydrolysed milk proteins to typical conditions in the stomach and small intestine. Gastric conditions were mimicked by dissolving 80 ml fermented or hydrolysed milk protein in 820 ml water contianing 2.0 g NaCl, 2.9 g pepsin and 0.45 g Amano Lipase F-AP15 from Rhizopus oryzae. The fluid was adjusted to pH 3.5 with HCl, stirred with a peddle (50 rpm) and kept at 37° C. for 60 min. […] The simulated intestinal fluid was stirred with a peddle (50 rpm) and kept at 37° C. for 120 min. Samples were collected at different time points during the in vitro gastrointestinal digestion. After collection, samples were directly heated at 95° C. for 30 min and subsequently stored at −20° C.

[5] = in sour milk, hypertensive humans, placebo-controlled; cited from earlier work

ACE (Homo sapiens, UniProt P12821), sequence (P12821 30-1306, species assumed): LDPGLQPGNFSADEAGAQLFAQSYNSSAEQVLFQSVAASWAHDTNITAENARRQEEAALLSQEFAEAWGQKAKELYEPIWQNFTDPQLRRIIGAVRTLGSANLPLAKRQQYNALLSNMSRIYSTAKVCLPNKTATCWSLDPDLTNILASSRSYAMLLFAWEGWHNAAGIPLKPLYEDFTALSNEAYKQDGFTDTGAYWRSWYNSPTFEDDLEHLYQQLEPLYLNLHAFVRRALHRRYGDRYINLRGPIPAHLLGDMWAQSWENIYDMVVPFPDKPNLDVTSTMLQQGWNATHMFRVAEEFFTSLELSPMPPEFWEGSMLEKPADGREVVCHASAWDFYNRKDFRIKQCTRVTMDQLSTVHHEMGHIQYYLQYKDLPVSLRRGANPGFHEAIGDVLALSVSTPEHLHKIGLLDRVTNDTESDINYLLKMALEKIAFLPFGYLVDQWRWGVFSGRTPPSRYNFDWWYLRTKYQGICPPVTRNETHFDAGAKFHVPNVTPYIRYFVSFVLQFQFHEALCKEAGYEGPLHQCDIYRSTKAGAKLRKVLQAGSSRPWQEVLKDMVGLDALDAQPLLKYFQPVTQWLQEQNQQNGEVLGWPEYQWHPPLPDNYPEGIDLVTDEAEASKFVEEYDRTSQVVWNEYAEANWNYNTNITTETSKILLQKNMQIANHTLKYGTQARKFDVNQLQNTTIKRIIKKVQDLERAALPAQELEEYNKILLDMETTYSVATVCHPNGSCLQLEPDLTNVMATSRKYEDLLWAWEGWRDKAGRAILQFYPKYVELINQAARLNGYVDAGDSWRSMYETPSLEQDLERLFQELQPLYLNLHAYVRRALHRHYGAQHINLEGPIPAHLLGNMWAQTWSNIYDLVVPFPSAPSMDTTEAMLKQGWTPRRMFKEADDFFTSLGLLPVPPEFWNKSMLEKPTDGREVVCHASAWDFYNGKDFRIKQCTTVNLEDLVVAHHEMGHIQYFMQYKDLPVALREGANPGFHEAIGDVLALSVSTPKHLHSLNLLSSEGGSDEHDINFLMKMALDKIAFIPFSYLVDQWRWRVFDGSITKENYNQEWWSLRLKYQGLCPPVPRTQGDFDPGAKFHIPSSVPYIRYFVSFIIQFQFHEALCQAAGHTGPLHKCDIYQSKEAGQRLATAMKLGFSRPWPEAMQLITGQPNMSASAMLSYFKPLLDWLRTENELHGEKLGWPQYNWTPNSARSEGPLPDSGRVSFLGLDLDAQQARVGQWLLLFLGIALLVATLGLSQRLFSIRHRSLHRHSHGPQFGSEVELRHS

SMILES	IC50 (ACE [1]) [µM]	IC50 (ACE [2]) [µM]	Stability, Serum [3]	Stability, HUVEC (HUVEC cells)	Stability, Caco-2 (Caco-2 cells)	Stability, GI conditions [4]	Blood pressure effect [5]
N[C@@H](CS)C(=O)N1CCC[C@H]1C(=O)N1CCC[C@H]1C(=O)O [CPP] (H-Cys-Pro-Pro-OH; N-terminus and C-terminus assumed)	5	4					
N[C@@H](Cc1ccccc1)C(=O)N[C@@H](Cc1ccc(O)cc1)C(=O)O [FY] (H-Phe-Tyr-OH; N-terminus and C-terminus assumed)	20	10	+	−	+/−		
CC[C@H](C)[C@H](N)C(=O)N1CCC[C@H]1C(=O)N1CCC[C@H]1C(=O)O [IPP]			+/−	+	−	+	blood pressure lowering effect
NCCCC[C@H](N)C(=O)N1CCC[C@H]1C(=O)N1CCC[C@H]1C(=O)O [KPP] (H-Lys-Pro-Pro-OH; N-terminus and C-terminus assumed)	> 50						
CC(C)C[C@H](NC(=O)[C@@H](NC(=O)[C@@H](N)CCCCN)C(C)C)C(=O)N1CCC[C@H]1C(=O)N[C@H](C(=O)N1CCC[C@H]1C(=O)O)C(C)C [KVLPVP] (H-KVLPVP-OH; N-terminus and C-terminus assumed)		2	−	−	−		
CSCC[C@H](N)C(=O)N1CCC[C@H]1C(=O)N1CCC[C@H]1C(=O)O [MPP] (H-Met-Pro-Pro-OH; N-terminus and C-terminus assumed)	10	7	+/−	+	−		
CC[C@H](C)[C@H](NC(=O)[C@@H]1CCCN1)C(=O)N1CCC[C@H]1C(=O)O [PIP] (H-Pro-Ile-Pro-OH; N-terminus and C-terminus assumed)	> 50		−	+/−	−		
CC(C)C[C@H](NC(=O)[C@@H]1CCCN1)C(=O)N1CCC[C@H]1C(=O)O [PLP] (H-Pro-Leu-Pro-OH; N-terminus and C-terminus assumed)	> 50		−	+/−	−		
C[C@@H](O)[C@H](N)C(=O)N1CCC[C@H]1C(=O)N1CCC[C@H]1C(=O)O [TPP] (H-Thr-Pro-Pro-OH; N-terminus and C-terminus assumed)	35	15	+/−	+	+		
CC(C)[C@H](N)C(=O)N[C@@H](C)C(=O)N1CCC[C@H]1C(=O)O [VAP] (H-Val-Ala-Pro-OH; N-terminus and C-terminus assumed)	4	1	−	−	−		
CC(C)[C@H](N)C(=O)N[C@@H](Cc1ccccc1)C(=O)O [VF] (H-Val-Phe-OH; N-terminus and C-terminus assumed)			+/−	−	+/−		
CC(C)[C@H](N)C(=O)N1CCC[C@H]1C(=O)N1CCC[C@H]1C(=O)O [VPP]							blood pressure lowering effect
